The values that follow come from US20200289611A1, “Methods and Compositions for the Inhibition of Quorum Sensing in Bacterial Infections” (priority 2016, published 2020).

“Also recorded” adds a separate entry of the source. Read-outs that look alike come from different tables or passages of the source.

In assay [1] the test system is agr systems of Staphylococcus epidermidis isolates of each agr-type. The assay can be described thus: agr-P3 reporter strains of S. epidermidis. It counts as cell-based.
Assay [2] deals with agr activation of LAC agr-P3 lux. The assay can be described thus: Measurement of quorum quenching in vivo (agr-P3 lux reporter strain). More on the design: species or system mice. How it is done: Inoculum preparation for assessing quorum quenching in vivo: An LAC reporter strain engineered to couple agr activation with bioluminescence, agr-P3 lux (AH2759) was grown in TSB medium+chloramphenicol, overnight at 37° C. in a shaking incubator set to 200 rpm. Overnight cultures were diluted 1:100 TSB+chloramphenicol and subcultured to an optical density of 0.1 at 600 nm hr). Bacterial cells were the pelleted and resuspended in sterile saline. […] Using the image analysis tools in living image software, circular analysis windows (of uniform area) were overlaid onto abdominal regions of interest (as depicted in FIG. 8e) and the corresponding bioluminescence values (total flux) were measured and plotted vs. time after infection.
To this end, mice with an agr-P3 lux reporter strain were challenged and carefully monitored the kinetics of agr activation over a six-hour period immediately following infection.

The subject of assay [3] is AIP signal biosynthesis (AgrB/AgrD). The assay can be described thus: Mass spectrometric measurement of AIP production (agrBD in agr null LAC). It counts as cell-based, Staphylococcus aureus. The settings on record: apicidin treated vs vehicle cultures. As to the method: To investigate the mechanisms by which apicidin inhibits quorum sensing, a series of in vitro assays were conducted to systematically assess the relative contribution of each of the core genetic elements of the agrBDCA operon (FIG. 13A). The membrane embedded peptidase AgrB, is responsible for processing the AgrD pro-peptide (immature AIP) for extracellular release. To determine if apicidin inhibits agr signaling at the level of AIP signal generation, an established system was used whereby the agrBD genes (under sarA P1 promoter regulation), were integrated into an agr null strain derived from the USA300 isolate LAC (40). This construct enables alterations to AIP signal biosynthesis to be clearly delineated from regulation stemming from signal integration. […] Next, the possibility that apicidin interferes with the sensory activity of AIP receptor AgrC was explored. For this, a R235H construct bearing a point mutation that confers constitutive AgrC activity, and thereby enables phospho-activation of AgrA to occur independently of AIP binding, was employed. […] Next, it was determined if AgrA serves as the target of apicidin. To this end, an agr null reporter construct, whereby agrP3 lux activation can only be achieved through the constitutive production of plasmid encoded AgrA […], was employed. […]

Regarding `CCC(=O)CCCCC[C@@H]1NC(=O)[C@H]2CCCCN2C(=O)[C@H](C(C)CC)NC(=O)[C@H](Cc2cn(OC)c3ccccc23)NC1=O` (some centres unmarked) [apicidin], the “quorum quenching in S. epidermidis” value in assay [1] was “extend to multiple staphylococcal species”; in assay [1] (listed as Apicidin), “quorum sensing inhibition across S. epidermidis agr types”. The “skin ulcers after agr-P3 lux reporter strain challenge” value in assay [2] (14-day period) is “dramatic reduction in dermatopathology”. Further, the “agr activation in vivo” value in assay [2] (agr-P3 lux reporter, 5 ug apicidin, first hours after infection) is on record as “reduced quorum sensing activity in vivo; also recorded: significant interference of agr activation in vivo; also recorded: high level of agr interference”. In assay [3], the “effect on AIP production” value is reported as “does not target AIP signal biosynthesis; also recorded: does not alter the release of AIP signals”.
